{"source": "patent USRE42700E1", "about": "“Induction of apoptosis in cancer cells” (Sanford-Burnham Medical Research Institute, priority 2001, dated 2011)", "key": {"[1]": {"tested_on": "leukemic blasts from patients (AML or CML in blast crisis)", "experiment": "apoptosis in primary cultures of patient leukemic blasts", "assay_type": "cell-based, human", "experimental": "(§1) Cell Growth: IL-3-transfected M07e cells have been described by Thacker, D. J., et al., Leukemia 8: 871-877 (1994). Cells were grown in RPMI supplemented with 5 percent heat-inactivated fetal bovine serum (FBS) and 25 μg/ml gentamycin in a […], 5% CO2, and 100% humidity environment. Leukemic cells were obtained from patients who met the criteria for the diagnosis of AML or CML in blast crisis (see Table 1). Studies were approved by the Wayne State University Institutional Review Board. Informed consent was obtained from all patients. Leukemic blasts from patients were isolated using Ficoll hypaque. Cells at the interface between plasma and red blood cells were diluted with sterile PBS, then layered over Ficoll hypaque (1.077 density), and the leukemic cells collected at the interface. The sample to be studied represented greater than 90% blasts. The patient leukemia samples were grown in RPMI medium supplemented with 10% FBS, gentamycin (25 μg/ml), IL-3 (20 ng/ml), SCF (25 ng/ml), GM-CSF (20 ng/ml) and G-CSF (20 ng/ml). Cell growth was assessed using a cell proliferation kit.\n(§2) Apoptosis Quantification: Staining of apoptotic cells was performed as described by Gavreli, Y., et al., (J. Cell. Biol. 119: 493-501 (1992)) and Whitacre, C. M., et al., (Cancer Res. 55: 3697-3701 (1995)). After 3-Cl-AHPC treatment, cells were harvested, washed with PBS and resuspended at 1×10^6 cells/ml. Cell suspensions (50 μl) were stained with […] of acridine orange solution ([…]) in PBS in the dark. Cells displaying fragmented DNA were detected using a fluorescent microscope. Apoptotic cells were also detected using a kit. Cells that incorporated fluorescein labeled deoxyuridine triphosphate were detected using flow cytometry."}, "[2]": {"tested_on": "caspases in patient leukemic cells", "experiment": "caspase activation in patient leukemic cells", "assay_type": "cell-based, human", "details": "1 μM", "experimental": "Activation of caspases-1, -2, -3, -6, -8 and -9 was assessed using a caspase activation kit."}, "[3]": {"tested_on": "ERK, p38 and JNK kinases in M07e and patient leukemic cells", "experiment": "activation of MAPK pathways (phospho-p38, phospho-ERK, phospho-JNK Western blots)", "assay_type": "cell-based, human", "details": "1 μM", "experimental": "(§3) Western Blots: Western blots were performed according to the protocol of Sheikh, M. S., et al., (Oncogene, 9: 3407-3415 (1994)). Logarithmically growing cells were treated with 3-Cl-AHPC for various times and cells were harvested and lysed in Laemmli lysis buffer (0.5 M Tris-HCl, pH 6.8, 0.002M EDTA, 10% glycerol, 10% sodium dodecyl sulfate (SDS), and 5% β-mercaptoethanol). Protein lysates (50 μg/lane) were electrophoresed on 12% SDS-polyacrylamide gels and transferred to nitrocellulose membranes. Membranes were blocked with 5% nonfat dried milk in PBS/0.5% Tween 20 and then incubated with the appropriate antibodies. Horseradish peroxidase-conjugated rabbit anti-mouse IgG was used as the secondary antibody, and bands were developed using the Amersham ECL non-radioactive method."}, "[4]": {"tested_on": "human acute megakaryocytic leukemia cell line M07e", "experiment": "M07e apoptosis quantification", "assay_type": "cell-based", "experimental": "as §2"}, "RXRα": {"target": "RXRα (Homo sapiens, UniProt P19793)", "sequence (P19793 whole entry)": "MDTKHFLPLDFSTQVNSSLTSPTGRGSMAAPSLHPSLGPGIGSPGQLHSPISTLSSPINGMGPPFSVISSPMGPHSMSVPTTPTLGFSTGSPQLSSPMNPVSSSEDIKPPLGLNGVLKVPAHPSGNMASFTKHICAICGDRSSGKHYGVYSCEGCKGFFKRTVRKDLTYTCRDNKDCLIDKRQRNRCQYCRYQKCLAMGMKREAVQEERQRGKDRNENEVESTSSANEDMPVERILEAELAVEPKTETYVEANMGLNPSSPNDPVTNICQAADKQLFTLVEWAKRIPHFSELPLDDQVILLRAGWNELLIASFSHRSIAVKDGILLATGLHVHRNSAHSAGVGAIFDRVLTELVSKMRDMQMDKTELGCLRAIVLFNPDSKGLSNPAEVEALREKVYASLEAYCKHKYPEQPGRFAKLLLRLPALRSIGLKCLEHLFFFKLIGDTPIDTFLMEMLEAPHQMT", "experiment": "activation of RXRα on the (TREpal)2-tk-CAT reporter construct", "assay_type": "cell-based", "details": "1.0 μM"}, "[5]": {"tested_on": "ALL cells obtained from patients", "experiment": "apoptosis of primary ALL cells obtained from patients", "assay_type": "cell-based, human", "details": "primary cultures"}, "[6]": {"tested_on": "mouse mammary adenocarcinoma 16/C", "experiment": "mouse mammary adenocarcinoma 16/C in syngeneic female C3H mice", "experimental": "The ability of 3-Cl-AHPC to inhibit the in vivo growth of breast carcinoma cells was tested using syngeneic mouse mammary and human breast adenocarcinoma SCID xenograft models."}, "[7]": {"tested_on": "leukemic blasts from patients (AML or CML in blast crisis)", "experiment": "proliferation of patient leukemic blasts", "assay_type": "cell-based", "details": "Homo sapiens", "experimental": "as §1"}, "[8]": {"tested_on": "leukemic blasts from patient 1", "experiment": "leukemia colony formation in methylcellulose", "assay_type": "cell-based, human", "details": "14 days", "experimental": "Leukemia Colony Formation: Leukemic blasts (1×10^5 cells) from patient 1 (Table 1) were isolated as described above and cultured in methylcellulose supplemented with 20% FCS, SCF, and IL-3, GM-CSF and G-CSF at a final concentration of 10 ng per ml, cells were incubated for 14 days at 37° C. in a 5% CO2 humidified atmosphere in the presence and absence of 3-Cl-AHPC after which time colonies (>40 cells) were counted."}, "[9]": {"tested_on": "committed marrow stem cells (CFU-GM)", "experiment": "CFU-GM colony formation (species not stated)", "assay_type": "cell-based", "details": "concentrations which completely inhibited leukemic colony formation", "experimental": "CFU-GM Colony Formation: The CFU-GM colony assay was performed as described in Parchment et al., (J. Natl. Cancer Inst. 86: 273-280 (1994))."}, "[10]": {"tested_on": "prostate cancer LNCaP, lung cancer NCI-H460, breast cancer ZR-75-1 and MDA-MB231 cells", "experiment": "DAPI staining apoptosis in cancer cell lines", "assay_type": "cell-based", "details": "10^−6 M", "experimental": "In FIG. 11, the indicated cancer cells were treated with 10^−6 M 3-Cl-AHPC, trypsinized, washed with PBS, fixed with 3.7% paraformaldehyde, and stained with 50 μg/ml DAPI containing 100 μg/ml DNase-free RNase A to visualize nuclei by fluorescent microscopy. The number of apoptotic cells with nuclear morphology typical of apoptosis, including nuclear fragmentation and condensation, was scored in at least 400 cells in each sample using a fluorescence microscope. In FIG. 12, the indicated cancer cells were treated with 10^−6 M 3-Cl-AHPC, trypsinized, washed with PBS, fixed with 3.7% paraformaldehyde, and stained with 50 μg/ml DAPI containing 100 μg/ml DNase-free RNase A to visualize nuclei and examined by fluorescent microscopy. Number of apoptotic cells with nuclear morphology typical of apoptosis, including nuclear fragmentation and condensation, was scored in at least 400 cells in each sample using a fluorescence microscope."}, "ZR-75": {"tested_on": "ZR-75", "experiment": "apoptosis induction / cell death in breast cancer cells", "assay_type": "cell-based, human"}, "Bcl-XL in leukemic cells": {"tested_on": "Bcl-XL in leukemic cells", "experiment": "Bcl-XL cleavage by Western blot", "assay_type": "cell-based, human", "details": "1 μM", "experimental": "as §3"}, "[11]": {"details": "total dose 44 mg/kg, days 1-4, 6-8"}, "[12]": {"details": "total dose 89 mg/kg, days 1-4, 6-8"}, "[13]": {"details": "total dose 178 mg/kg, days 1-4, 6, 8"}}, "note": "pIC50: −log10 of the molar value.", "data": [{"smiles": "O=C(O)/C=C/c1ccc(-c2ccc(O)c(C34CC5CC(CC(C5)C3)C4)c2)c(Cl)c1", "note": "[Example 3-Cl-AHPC, (E)-4-[3-(1-Adamantyl)-4-hydroxyphenyl]-3-chlorocinnamic acid]", "values": [{"measurement": "apoptosis of leukemic blasts", "setting": "[1]; 0.5 μM", "result": 60, "unit": "%"}, {"measurement": "induction of apoptosis", "setting": "[1]; 1 μM, 11 primary cultures", "result": "> 80", "unit": "%"}, {"measurement": "apoptosis of leukemic blasts", "setting": "[1]; 0.2 and 0.1 μM", "result": "minimal apoptosis"}, {"measurement": "proliferation and apoptosis of primary human AML cultures (FIG. 13)", "setting": "[1]; non-APL AML samples", "result": "inhibited the proliferation and induced apoptosis"}, {"measurement": "concentration required to induce apoptosis", "setting": "[1]; patient leukemic cells", "result": 0.5, "unit": "µM"}, {"measurement": "activation of caspase-2", "setting": "[2]", "result": 6, "unit": "fold"}, {"measurement": "activation of caspase-5", "setting": "[2]", "result": "two-fold"}, {"measurement": "activation of caspase-6", "setting": "[2]", "result": 4, "unit": "fold"}, {"measurement": "activation of caspase-8", "setting": "[2]", "result": 4, "unit": "fold"}, {"measurement": "activation of caspase-9", "setting": "[2]", "result": "two-fold"}, {"measurement": "activation of caspase-3", "setting": "[2]; 24 hours", "result": 8, "unit": "fold"}, {"measurement": "activation of caspase-3", "setting": "[2]; 48 hours", "result": 14, "unit": "fold"}, {"measurement": "activation of ERK, p38 and JNK kinases", "setting": "[3]", "result": "inactivation of ERK, p38 and JNK kinases"}, {"measurement": "apoptosis", "setting": "[4]; 0.2 μM", "result": "no significant increase in apoptosis"}, {"measurement": "apoptosis", "setting": "[4]; 0.5 and 1.0 μM", "result": "onset of apoptosis"}, {"measurement": "concentration required to induce apoptosis", "setting": "[4]; M07e cells", "result": 0.5, "unit": "µM"}, {"measurement": "activation of RXRα", "setting": "RXRα", "result": "does not activate"}, {"measurement": "apoptosis of ALL cells obtained from patients", "setting": "[5]", "result": "resulted in their apoptosis"}, {"measurement": "inhibition of tumor growth", "setting": "[6]; T/C=20%", "result": 80, "unit": "%"}, {"measurement": "toxicity as evidenced by weight loss of the mice", "setting": "[6]; compared to AHPN", "result": "minimal toxicity"}, {"measurement": "% body wt. loss", "setting": "[6]; [11]", "result": 4, "unit": "%"}, {"measurement": "Drug deaths", "setting": "[6]; [11]", "result": "0/5"}, {"measurement": "T/C %", "setting": "[6]; [11]", "result": ">100", "unit": "%"}, {"measurement": "% body wt. loss", "setting": "[6]; [12]", "result": "−3", "unit": "%"}, {"measurement": "Drug deaths", "setting": "[6]; [12]", "result": "0/5"}, {"measurement": "T/C %", "setting": "[6]; [12]", "result": 47, "unit": "%"}, {"measurement": "% body wt. loss", "setting": "[6]; [13]", "result": "−4", "unit": "%"}, {"measurement": "Drug deaths", "setting": "[6]; [13]", "result": "0/5"}, {"measurement": "Log cell kill", "setting": "[6]; [13]", "result": 0.9}, {"measurement": "T/C %", "setting": "[6]; [13]", "result": 20, "unit": "%"}, {"measurement": "inhibition at 1 µM", "setting": "[7]", "result": "60 to 90", "unit": "%"}, {"measurement": "concentration for complete inhibition of leukemia colony formation", "setting": "[8]", "result": 600, "unit": "nM"}, {"measurement": "pIC50", "setting": "[8]; Homo sapiens, 336 h, patient 1, read-out: inhibition of leukemia colony formation, ED50 (IC50)", "result": 6.43}, {"measurement": "inhibition of CFU-GM colony formation", "setting": "[9]", "result": 30, "unit": "%"}, {"measurement": "induction of apoptosis (DAPI staining)", "setting": "[10]", "result": "potently induced apoptosis"}, {"measurement": "ED50 (concentration that results in 50% cell death)", "setting": "ZR-75", "result": 700, "unit": "nM"}, {"measurement": "Bcl-XL cleavage", "setting": "Bcl-XL in leukemic cells", "result": "cleavage of Bcl-XL to a 18-kD product"}]}]}
